Laboratory results published in BindingDB's records for doi:10.7270/Q2TX3CTT (Broad Institute, 2010).

These compounds were tested against Glycogen synthase kinase-3 beta (Homo sapiens, UniProt P49841) (assay: concentration-response blocking of human GSK3B – biochemical, luminescence, cell-free homogeneous, retest, dose response (AID 434954)).
Glycogen synthase kinase-3 beta, sequence (P49841 whole entry): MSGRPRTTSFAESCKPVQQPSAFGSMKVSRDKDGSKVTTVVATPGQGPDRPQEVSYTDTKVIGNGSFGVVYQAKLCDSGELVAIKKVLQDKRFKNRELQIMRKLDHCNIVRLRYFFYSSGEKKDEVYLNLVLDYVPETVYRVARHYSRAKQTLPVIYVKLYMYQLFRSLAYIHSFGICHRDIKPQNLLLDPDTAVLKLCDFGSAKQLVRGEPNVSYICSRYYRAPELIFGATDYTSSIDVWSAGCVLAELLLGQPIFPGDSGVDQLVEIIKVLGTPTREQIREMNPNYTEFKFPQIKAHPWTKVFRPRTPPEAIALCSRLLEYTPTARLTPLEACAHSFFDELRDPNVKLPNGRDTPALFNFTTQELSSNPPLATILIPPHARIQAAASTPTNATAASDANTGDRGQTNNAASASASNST

Going from `Cc1cccc(-n2c(=O)c3c4c(sc3n3c(=S)[nH]nc23)CCC4)c1` [1-mercapto-4-(3-methylphenyl)-7,8-dihydro-6H-cyclopenta[4,5]thieno[3,2-e][1,2,4]triazolo[4,3-a]pyrimidin-5(4H)-one] to `CCOC(=O)c1cnc2ccc(C)cc2c1Nc1ccc(N2CCOCC2)cc1` [6-methyl-4-(4-morpholinoanilino)quinoline-3-carboxylic acid ethyl ester], the EC50 rises from 48.9 µM to over 300 µM.

Compared with `O=C(Nc1ccc([N+](=O)[O-])cn1)C1CC1` [SMR000227137], `CCn1c(SCC(=O)Nc2ccc(Br)cn2)nnc1C1CC1` [SMR000671057] is 3.2-fold higher in EC50: 23.1 µM for the first, 75 µM for the second.

Compared with `Nc1nonc1-n1nnc(C(=O)NN=Cc2ccccc2Br)c1CN1CCCC1` [SMR000620637], `O=C(NN=Cc1ccccn1)c1cccnc1` [Nicotinic acid [1-pyridin-2-yl-meth-(E)-ylidene]-hydrazide] is higher in EC50: 1.57 µM for the first, over 300 µM for the second.

`FC(F)(F)COc1ccc(-n2ccnc2)nn1` [SMR000307161] and `Fc1ccc(CSc2nnc(-c3ccccn3)o2)cc1` cannot be ordered by EC50: over 300 µM for the first, over 300 µM for the second.

Compared with `C/C=C/c1ccc(OCC(=O)O)c(OC)c1`, `COc1cc(/C=C2\Oc3cc(O)ccc3C2=O)ccc1O` is lower in EC50: over 300 µM for the first, 12.4 µM for the second.

`COCCN(CC(=O)NCc1ccccc1)C(=O)CCC(=O)Nc1ccccn1` [SMR000004552] and `O=C1N=C(NCc2ccccc2)SC1=Cc1ccccc1` [MLS000589841] cannot be ordered by EC50: over 300 µM for the first, over 300 µM for the second.

First: COc1ccc(OC)c(Nc2oc3cc(=O)ccc-3cc2C(N)=O)c1 [2-[(Z)-2,5-Dimethoxy-phenylimino]-7-hydroxy-2H-chromene-3-carboxylic acid amide]
Second: CC(=O)Nc1ccc(S(=O)(=O)NCc2ccc(C)n2C)cc1 [N-[4-[(1,5-dimethylpyrrol-2-yl)methylsulfamoyl]phenyl]ethanamide]
The EC50 of the first is lower: 11.9 µM for the first, over 300 µM for the second.

Compared with `O=C(Nc1ncc(Cc2ccccc2)s1)C1CCCO1` (stereo not drawn) [MLS000100685], `N=C(Cc1nc2ccccc2s1)NO` [2-(1,3-benzothiazol-2-yl)-N'-oxidanyl-ethanimidamide] is higher in EC50: 17.6 µM for the first, over 300 µM for the second.

Compared with `O=[N+]([O-])c1c(-c2cn[nH]c2)n[nH]c1-c1cn[nH]c1` [SMR000289595], `CCOC(=O)CC(=O)CSc1ccc2nnc(-c3ccc(F)cc3)n2n1` [ethyl 4-{[3-(4-fluorophenyl)[1,2,4]triazolo[4,3-b]pyridazin-6-yl]thio}-3-oxobutanoate] is 6.2-fold higher in EC50: 13.6 µM for the first, 83.8 µM for the second.

`CC1CCCCN1c1cc(C#N)c(C#N)cc1[N+](=O)[O-]` (stereo not drawn) [4-(2-methyl-1-piperidinyl)-5-nitrophthalonitrile] and `CCN1CCN(C(=O)c2ccc3c(c2)N(Cc2ccc(F)cc2)C(=O)c2ccccc2[S+]3[O-])CC1` (stereo not drawn) [MLS000117749] cannot be ordered by EC50: over 300 µM for the first, over 300 µM for the second.

`C[C@H](NC(=O)[C@@H]1CSC2c3ccccc3C(=O)N21)C(=O)NCc1c(F)cccc1Cl` (stereo partly drawn) [(3R)-N-[(2S)-1-[(2-chloro-6-fluorophenyl)methylamino]-1-oxopropan-2-yl]-5-oxo-3,9b-dihydro-2H-thiazolo[2,3-a]isoindole-3-carboxamide] and `CCOC(=O)CSc1nnc(-c2cccs2)n1-c1ccccc1` cannot be ordered by EC50: over 300 µM for the first, over 300 µM for the second.

Compared with `O=C1N=C(Nc2ccc(O)cc2)SC1=Cc1ccco1` [SMR000298037], `O=C(Nc1ccncc1)c1ccccc1-c1ccccc1` [MLS000672259] is lower in EC50: over 300 µM for the first, 14.5 µM for the second. The second is the more potent here.

`C=CCNC(=O)c1onc(CSc2cccc(OC)c2)c1C(=O)NCC=C` [3-[(3-methoxyphenyl)sulfanylmethyl]-N4,N5-bis(prop-2-enyl)-1,2-oxazole-4,5-dicarboxamide] and `CC(=O)c1ccc(NC(=O)CN2C(=O)CCC2=O)cc1` [N-(4-acetylphenyl)-2-(2,5-dioxo-1-pyrrolidinyl)acetamide] cannot be ordered by EC50: over 300 µM for the first, over 300 µM for the second.

Going from `Cc1ccc(CSc2nnc(-c3ccncc3)o2)c(C)c1` [SMR000280552] to `C[C@@H]1O[C@@H](OC[C@H]2O[C@@H](Oc3c(-c4ccc(O)c(O)c4)oc4cc(O)cc(O)c4c3=O)[C@H](O)[C@@H](O)[C@@H]2O)[C@H](O)[C@H](O)[C@H]1O` [3-Rhamnoglucosylquercetin], the EC50 rises from 14.5 µM to 28 µM (1.9-fold).
